In patent US20080096967A1, “Formulations for Injection of Catecholic Butanes, Including Ndga Compounds, Into Animals” (priority 2005, published 2008):

What was measured:
[1] = 7-Day intravenous infusion study in Beagle dogs: toxicokinetic serum analysis; type: in vivo
Experimental: This study was conducted to evaluate the toxicokinetic profile of M4N formulated in 30% HP-β-CD and 25% PEG 300 when administered as a single intravenous infusion dose for seven consecutive days in beagle dogs. This study constitutes the first study of this particular formulation of M4N in dogs and was executed to evaluate the toxicity and compare tolerability of a diluted formulation (10 mg/mL versus 5 mg/mL).
A total of twelve beagle dogs (8 male/4 female) were dosed with M4N via a 54-minute (Group 2) or 108-minute (Groups 1, 3 and 4) intravenous infusion. All animals received seven doses, one per day over seven consecutive days.
The following parameters were evaluated: clinical observations and body weights. Test article analysis was performed on Study Days 1 and 7, blood samples (targeting a volume of 2.0 mL) were collected from each animal from an appropriate vessel at the following time points: […]

[2] = M4N stability in HP-β-CD/PEG 300 buffer solutions at 60° C. (RP-HPLC, pH); type: physicochemical; conditions: for M4N concentration (stability): 25% PEG300
Experimental: The stability of 10 mg/mL M4N (prepared in a ratio of 75:25 40% HP-β-CD: 40 mg/mL M4N PEG 300) in 15 mM buffer solutions was evaluated following incubation at 60° C.
2.0 g HP-β-CD was weighed into 5 mL volumetric flasks on an OHAUS Analytical Plus Balance. 1 mL of a 100 mM buffer solution was added to each flask. Each sample was q.s. to 5 mL with WFI.
750 μL 40% HP-β-CD buffered solution was placed in 1.5 mL polypropylene microtubes. […] After gentle inversion of the sample tubes, the pH of each solution was measured using a Orion, Model 420A pH meter. An initial aliquot was removed for RP-HPLC analysis. Test samples were then placed in a Precision 60° C. incubator. The M4N stability was evaluated by RP-HPLC. At each time point, the samples were centrifuged for 2 minutes at 13,000 rpm to pellet any solid M4N.

[3] = design: species or system Beagle dogs; conditions: in vivo
Experimental: Following completion of each intravenous infusion, 1 mL of sterile saline was administered as a slow bolus injection to flush the test material from the infusion line into the animal, followed by an injection of heparin-saline solution to fill the infusion line to maintain patency. The animals were observed. Cageside observation included observation for mortality, morbundity, general health, and signs of toxicity. Clinical observations included evaluation of skin and fur characteristics, surgical site, eye and mucous membranes, respiratory, circulatory, autonomic and central nervous systems, and somatomotor and behavior patterns. Blood was collected and placed into 2.5 mL serum separator tubes for serum M4N concentration analysis. The tubes were inverted several times, stored on wet ice, and centrifuged at about 3000 rpm for about 10 min. at 4° C. Serum was transferred to microcentrifuge tubes and stored at −75±10° C.
Samples were shipped on dry ice to the Analytical Chemistry Laboratory of GeneLogic (Gaithersburg, Md., U.S.A.) for test article analysis. The method involved treating aliquots of dog serum, at least 0.5 mL, with acetonitrile, filtering, and injecting the filtrate onto an HPLC column with tandem mass-spectrometry detection (LC-MS/MS). The analyte was quantified using an external standard curve with triazolam as an internal standard.

COc1ccc(C[C@@H](C)[C@@H](C)Cc2ccc(OC)c(OC)c2)cc1OC [Formulation M4N, meso-1,4-bis(3,4-dimethoxyphenyl)-2,3-dimethylbutane]
peak test article concentration in serum ([1]; Group 2, 45 mg/kg (10 mg/mL), 54-minute IV infusion): 33420 ng/mL | time of maximum concentration ([1]; Group 2, end of infusion): 0.9 h | peak test article concentration in serum ([1]; Group 3, 90 mg/kg (10 mg/mL), 108-minute IV infusion): 46704 ng/mL | peak test article concentration in serum ([1]; Group 4, 45 mg/kg (5 mg/mL), 108-minute IV infusion): 18759 ng/mL | time of maximum concentration ([1]; Groups 3 and 4, end of infusion): 1.8 h | change in concentration of M4N solutions ([2]; 10 mg/mL M4N in HP-β-CD/PEG 300, 15 mM buffers, 14 day incubation at 60° C.): slight decrease | M4N concentration (stability) ([2]; 15 mM Acetate, pH 5, 30% HP-β-CD, 0 days at 60° C.): 10.6 mg/mL | M4N concentration (stability) ([2]; 15 mM Acetate, pH 5, 30% HP-β-CD, 2 days at 60° C.): 10.2 mg/mL | M4N concentration (stability) ([2]; 15 mM Acetate, pH 5, 30% HP-β-CD, 6 days at 60° C.): 9.6 mg/mL | M4N concentration (stability) ([2]; 15 mM Acetate, pH 5, 30% HP-β-CD, 10 days at 60° C.): 9.7 mg/mL | M4N concentration (stability) ([2]; 15 mM Acetate, pH 5, 30% HP-β-CD, 14 days at 60° C.): 9.6 mg/mL | M4N concentration (stability) ([2]; 15 mM Acetate, pH 6, 30% HP-β-CD, 0 days at 60° C.): 10.5 mg/mL | M4N concentration (stability) ([2]; 15 mM Acetate, pH 6, 30% HP-β-CD, 2 days at 60° C.): 10.1 mg/mL | M4N concentration (stability) ([2]; 15 mM Acetate, pH 6, 30% HP-β-CD, 6 days at 60° C.): 9.7 mg/mL | M4N concentration (stability) ([2]; 15 mM Acetate, pH 6, 30% HP-β-CD, 10 days at 60° C.): 9.7 mg/mL | M4N concentration (stability) ([2]; 15 mM Acetate, pH 6, 30% HP-β-CD, 14 days at 60° C.): 9.6 mg/mL | M4N concentration (stability) ([2]; 15 mM Borate, pH 10, 30% HP-β-CD, 0 days at 60° C.): 10.5 mg/mL | M4N concentration (stability) ([2]; 15 mM Borate, pH 10, 30% HP-β-CD, 2 days at 60° C.): 10.1 mg/mL | M4N concentration (stability) ([2]; 15 mM Borate, pH 10, 30% HP-β-CD, 6 days at 60° C.): 9.7 mg/mL | M4N concentration (stability) ([2]; 15 mM Borate, pH 10, 30% HP-β-CD, 10 days at 60° C.): 9.6 mg/mL | M4N concentration (stability) ([2]; 15 mM Borate, pH 10, 30% HP-β-CD, 14 days at 60° C.): 9.6 mg/mL | M4N concentration (stability) ([2]; 15 mM Borate, pH 11, 30% HP-β-CD, 0 days at 60° C.): 10.5 mg/mL | M4N concentration (stability) ([2]; 15 mM Borate, pH 11, 30% HP-β-CD, 2 days at 60° C.): 10.3 mg/mL | M4N concentration (stability) ([2]; 15 mM Borate, pH 11, 30% HP-β-CD, 6 days at 60° C.): 9.8 mg/mL | M4N concentration (stability) ([2]; 15 mM Borate, pH 11, 30% HP-β-CD, 10 days at 60° C.): 9.5 mg/mL | M4N concentration (stability) ([2]; 15 mM Borate, pH 11, 30% HP-β-CD, 14 days at 60° C.): 9.4 mg/mL | M4N concentration (stability) ([2]; 15 mM Phosphate, pH 3, 30% HP-β-CD, 0 days at 60° C.): 10.3 mg/mL | M4N concentration (stability) ([2]; 15 mM Phosphate, pH 3, 30% HP-β-CD, 2 days at 60° C.): 10.1 mg/mL | M4N concentration (stability) ([2]; 15 mM Phosphate, pH 3, 30% HP-β-CD, 6 days at 60° C.): 9.6 mg/mL | M4N concentration (stability) ([2]; 15 mM Phosphate, pH 3, 30% HP-β-CD, 10 days at 60° C.): 9.7 mg/mL | M4N concentration (stability) ([2]; 15 mM Phosphate, pH 3, 30% HP-β-CD, 14 days at 60° C.): 9.6 mg/mL | M4N concentration (stability) ([2]; 15 mM Phosphate, pH 4, 30% HP-β-CD, 0 days at 60° C.): 10.5 mg/mL | M4N concentration (stability) ([2]; 15 mM Phosphate, pH 4, 30% HP-β-CD, 2 days at 60° C.): 10.1 mg/mL | M4N concentration (stability) ([2]; 15 mM Phosphate, pH 4, 30% HP-β-CD, 6 days at 60° C.): 9.6 mg/mL | M4N concentration (stability) ([2]; 15 mM Phosphate, pH 4, 30% HP-β-CD, 10 days at 60° C.): 9.7 mg/mL | M4N concentration (stability) ([2]; 15 mM Phosphate, pH 4, 30% HP-β-CD, 14 days at 60° C.): 9.6 mg/mL | M4N concentration (stability) ([2]; 15 mM Phosphate, pH 7, 30% HP-β-CD, 0 days at 60° C.): 10.5 mg/mL | M4N concentration (stability) ([2]; 15 mM Phosphate, pH 7, 30% HP-β-CD, 2 days at 60° C.): 10.3 mg/mL | M4N concentration (stability) ([2]; 15 mM Phosphate, pH 7, 30% HP-β-CD, 6 days at 60° C.): 9.7 mg/mL | M4N concentration (stability) ([2]; 15 mM Phosphate, pH 7, 30% HP-β-CD, 10 days at 60° C.): 9.7 mg/mL | M4N concentration (stability) ([2]; 15 mM Phosphate, pH 7, 30% HP-β-CD, 14 days at 60° C.): 9.7 mg/mL | M4N concentration (stability) ([2]; 15 mM Phosphate, pH 8, 30% HP-β-CD, 0 days at 60° C.): 10.6 mg/mL | M4N concentration (stability) ([2]; 15 mM Phosphate, pH 8, 30% HP-β-CD, 2 days at 60° C.): 10.4 mg/mL | M4N concentration (stability) ([2]; 15 mM Phosphate, pH 8, 30% HP-β-CD, 6 days at 60° C.): 9.7 mg/mL | M4N concentration (stability) ([2]; 15 mM Phosphate, pH 8, 30% HP-β-CD, 10 days at 60° C.): 9.8 mg/mL | M4N concentration (stability) ([2]; 15 mM Phosphate, pH 8, 30% HP-β-CD, 14 days at 60° C.): 9.6 mg/mL | M4N concentration (stability) ([2]; 15 mM Phosphate, pH 9, 30% HP-β-CD, 0 days at 60° C.): 10.4 mg/mL | M4N concentration (stability) ([2]; 15 mM Phosphate, pH 9, 30% HP-β-CD, 2 days at 60° C.): 10.2 mg/mL | M4N concentration (stability) ([2]; 15 mM Phosphate, pH 9, 30% HP-β-CD, 6 days at 60° C.): 9.7 mg/mL | M4N concentration (stability) ([2]; 15 mM Phosphate, pH 9, 30% HP-β-CD, 10 days at 60° C.): 9.8 mg/mL | M4N concentration (stability) ([2]; 15 mM Phosphate, pH 9, 30% HP-β-CD, 14 days at 60° C.): 9.7 mg/mL | M4N impurities, share of total peak area ([2]; 14 day incubation at 60° C.): less than 0.1% | apparent sample pH during the incubation period ([2]; 14 days at 60° C.): Little if any changes | M4N concentration (stability) ([2]; WFI, 30% HP-β-CD, 0 days at 60° C.): 10.4 mg/mL | M4N concentration (stability) ([2]; WFI, 30% HP-β-CD, 2 days at 60° C.): 10.1 mg/mL | M4N concentration (stability) ([2]; WFI, 30% HP-β-CD, 6 days at 60° C.): 9.9 mg/mL | M4N concentration (stability) ([2]; WFI, 30% HP-β-CD, 10 days at 60° C.): 9.7 mg/mL | M4N concentration (stability) ([2]; WFI, 30% HP-β-CD, 14 days at 60° C.): 9.6 mg/mL | M4N in serum 16 hr following the infusion period ([3]; dog): still detectable | M4N serum levels, female dog vs male dog [3]: higher in the female dog
